The results in this text go back to the METLIN SMRT retention time set (Domingo-Almenara et al. 2019).

Structures are written as SMILES.

A short description of this data set: gradient 5% acetonitrile 3 min, to 50% in 2 min, to 85% in 15 min, held 3 min, 100 µL/min. The following applies: column: Zorbax Extend-C18 2.1 x 50 mm; eluents: water / acetonitrile, 0.1% formic acid. Put shortly: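 The system's dead and dwell volumes were 40 μL and 900 μL, with a Zorbax Extend-C18 column (2.1 × 50 mm, 1.8 μm) run at 100 μL/min in water and acetonitrile containing 0.1% formic acid each. Pure standards were analyzed in mixtures of ~100 molecules by HPLC–quadrupole time-of-flight mass spectrometry in positive and negative ionization mode. Retention time was assigned from computationally picked, manually inspected adduct peaks.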
Take `COc1ccc(Nc2c(-c3ccc(OC)cc3)nc3ncccn23)cc1`: the RP-LC retention time stood at 659 s.

In turn, `CCC(C)NC(=O)Cn1cnc2nc(N3CCCC(C(=O)NC4CC4)C3)sc2c1=O` (centres undefined) came in with an RP-LC retention time of 610 s.

In turn, `Cc1ccccc1Cn1nc2c(S(=O)(=O)N3CCOCC3)cccn2c1=O` had an RP-LC retention time of 794 s.

The compound `O=C(NCCc1c[nH]c2ccc(F)cc12)c1ccc(F)cc1-n1cnnn1` registered an RP-LC retention time of 756 s.

`COc1ccc(NC(=O)Cn2nc3n(c2=O)CCCCC3)cc1Cl` displayed an RP-LC retention time of 692 s.

Consider `COc1cccc(NS(=O)(=O)c2cc3n(c2)CCCNC3=O)c1`, for which the RP-LC retention time is 632 s.

As for `Cc1nc(C)c(C(=O)NCc2c(-c3ccccc3)nc3sc(C)nn23)s1`, the RP-LC retention time came to 737 s.

The compound `Cc1nc(-c2noc(-c3cccnc3)n2)cn1CC(=O)Nc1ccc(F)cc1` displayed an RP-LC retention time of 687 s.

In turn, `O=C(NC1CCCCC1)C1CCN(c2ncccc2-c2nc(-c3ccc(Cl)cc3)no2)CC1` returned an RP-LC retention time of 1230 s.

Regarding `Cc1ccccc1CNC(=O)CN1C(=O)C(C)(C)c2ccccc21`, the RP-LC retention time was found to be 874 s.

In turn, `CCNC(=O)N1CCC(c2noc(-c3ccncc3)n2)C1` (centres undefined) yielded an RP-LC retention time of 616 s.

`COc1ccccc1CNC(=O)C1=C2CCCN2c2ccccc2S1(=O)=O` came in with an RP-LC retention time of 843 s.

The compound `Cc1noc(C2CN(C(=O)Nc3cccc(Cl)c3)CC23CCOCC3)n1` (centres undefined) gave an RP-LC retention time of 786 s.

As for `CCOC(=O)c1[nH]c(C)c(CCC(=O)NCCN2CCCCCC2)c1C`, the RP-LC retention time came to 616 s.

Take `O=C(CCc1conc1-c1ccc(F)cc1)N1CCN(c2ccc(Cl)cc2)CC1`: the RP-LC retention time is 1090 s.

Turning to `O=C(Nc1ccc(S(=O)(=O)N2CCCCC2c2cccnc2)cc1)C1CCCCC1` (centres undefined), the RP-LC retention time was determined as 654 s.

The compound `COc1cccc(/C=C/c2nccc3ccccc23)c1OC` returned an RP-LC retention time of 768 s.

Compound `Cn1cnc(S(=O)(=O)N2CCC(C(=O)NCCc3ccccc3)CC2)c1` showed an RP-LC retention time of 663 s.

Take `O=c1ccn(-c2cccc(F)c2)nc1-c1nc(-c2ccccc2)no1`: the RP-LC retention time was determined as 851 s.

`CCCNC(=O)C1CCCN(c2ccc(SCC(=O)Nc3cc(OC)cc(OC)c3)nn2)C1` (centres undefined) had an RP-LC retention time of 673 s.

Take `CCc1nc2ncc(-c3ccnc(N4CCN(C)CC4)n3)c(C)n2n1`: the RP-LC retention time is 562 s.

In turn, `Cc1cc2[nH]c(=O)[nH]c2cc1S(=O)(=O)Nc1cccc(Cl)c1` showed an RP-LC retention time of 690 s.

On to `COc1cccc(C(=O)c2oc3ccccc3c2NC(=O)c2ccccc2[N+](=O)[O-])c1`, for which the RP-LC retention time came out at 1080 s.

The compound `Cc1cc(N2CCOCC2)nc(N2CCN(S(=O)(=O)c3ccc4c(c3)Cc3ccccc3-4)CC2)n1` registered an RP-LC retention time of 813 s.

With `COc1ccc(-c2cc3c(=O)n(Cc4noc(CN5CCCC(C)C5)n4)ccn3n2)cc1` (centres undefined), the RP-LC retention time was 675 s.

`Cc1cccc(NC(=O)N2CCC3(C2)C(=O)N(C)c2ccccc23)c1` (centres undefined) yielded an RP-LC retention time of 808 s.

Compound `Cc1ccc(C)c2sc(NC(=O)c3cccc(N4C(=O)CCC4=O)c3)nc12` had an RP-LC retention time of 852 s.

Turning to `COc1ccc(NC(=O)Cn2ccc3ccc(-c4nnc(C)o4)cc32)cc1Cl`, the RP-LC retention time worked out at 811 s.

Compound `O=C(NCCn1cc(SCC(=O)N2CCOCC2)c2ccccc21)c1ccc(F)cc1` gave an RP-LC retention time of 733 s.

`COc1cccc(-n2c(=O)c3sccc3n(Cc3nc(-c4ccc(F)c(Cl)c4)no3)c2=O)c1` displayed an RP-LC retention time of 1060 s.

Take `COC(=O)C1=CN(c2cccc(Cl)c2)c2ccc(F)cc2S1(=O)=O`: the RP-LC retention time amounted to 895 s.

With `CCCS(=O)(=O)N1CCCN(C2=NS(=O)(=O)C(c3ccccc3)=C2C)CC1`, the RP-LC retention time came out at 839 s.

With `Cc1nc(-c2csc(S(=O)(=O)N3CCC(C(=O)Nc4ccc(F)cc4Cl)CC3)c2)no1`, the RP-LC retention time is 1010 s.

In turn, `CCCS(=O)(=O)N1CCC(Cc2nc(-c3ccncc3)n[nH]2)C1` (centres undefined) displayed an RP-LC retention time of 576 s.

Consider `CCn1cc(S(=O)(=O)N2CCC(Cc3nc(-c4cccnc4)n[nH]3)C2)cn1` (centres undefined), for which the RP-LC retention time stood at 592 s.

Consider `O=C(Cc1nnc(-c2ccccc2)o1)NCc1ccccn1`, for which the RP-LC retention time came out at 577 s.

`COC(=O)c1ncn2c1C(=O)N(CCc1ccccc1)C(C)(C(=O)NC1CCCC1)C2` (centres undefined): the RP-LC retention time was determined as 738 s.

`O=C(c1cc(C2CC2)[nH]n1)N1CC(F)(F)C[C@H]1c1nc(C2CC2)no1`: the RP-LC retention time worked out at 794 s.

Compound `CC(=O)N1c2ccc(S(=O)(=O)N3CCCCC3)cc2CC1C(=O)N1CCN(c2ccccn2)CC1` (centres undefined) yielded an RP-LC retention time of 645 s.

In turn, `O=C(NCCCN1CCC(Cc2ccccc2)CC1)C1CCCN(S(=O)(=O)N2CCCCC2)C1` (centres undefined) returned an RP-LC retention time of 745 s.

Turning to `CC(C)CN(CC(C)C)c1nc(-c2ccccc2)nc2ccccc12`, the RP-LC retention time came out at 951 s.

In the case of `COc1ccc(C(=O)N2CCN3CCS(=O)(=O)N(C4CC4)C(=O)C3C2)c(OC)n1` (centres undefined), the RP-LC retention time amounted to 732 s.

For `CCOCCCNC(=O)NCCn1cnc2cc(C(=O)N3CCCC3)ccc21`, the RP-LC retention time stood at 577 s.

`Cc1ccc(NC(=O)C2CCCN2S(=O)(=O)c2cc3c(cc2C)NC(=O)CO3)cc1C` (centres undefined) showed an RP-LC retention time of 794 s.

Compound `O=C(NCC1CCCO1)c1nc2ccccn2c1-c1ccc(Cl)cc1` (centres undefined) had an RP-LC retention time of 785 s.

With `CCCNC(=O)C1CCN(c2nc3ccc(-c4ccccc4F)nc3s2)CC1`, the RP-LC retention time is 951 s.

As to `Cc1ccnc(NC(=O)C2CCN(S(=O)(=O)c3ccc(-c4noc(C5CC5)n4)cc3)CC2)c1`, the RP-LC retention time was 794 s.

Turning to `Cn1ncc2c(N3CCSCC3)nc(C(=O)NC3CC3)nc21`, the RP-LC retention time amounted to 670 s.

Compound `O=C1CCN(C(=O)C2CCN(C(=O)NC3CCCCC3)CC2)CCCCCCN1` gave an RP-LC retention time of 664 s.

`CCOC(=O)C1CCCN(C(=O)c2ccc(SCCN3CCOCC3)nc2)C1` (centres undefined) returned an RP-LC retention time of 616 s.

With `Cc1cccc(-c2nnc(CC(=O)NC3CCCCC3)o2)c1`, the RP-LC retention time is 817 s.

As for `O=C(c1ccco1)N1CCN(c2ccc(=O)n(-c3cccc(Cl)c3)n2)CC1`, the RP-LC retention time came out at 753 s.

Take `CN1CCN(c2ccc(-c3ccc(NC(=O)c4cc(Cl)ccc4Cl)cc3)nn2)CC1`: the RP-LC retention time was determined as 646 s.

Turning to `CN1CCN(c2ccc(-c3nc(-c4cccc(F)c4)no3)cn2)CC1`, the RP-LC retention time stood at 685 s.

`CC(C)OC(=O)c1ncoc1-c1ccccc1C(=O)N1CCN(C2CCCCC2)CC1` yielded an RP-LC retention time of 638 s.

As for `Cc1cccc(N(C)C(=O)CN2C(=O)NC3(CCCCC3)C2=O)c1`, the RP-LC retention time worked out at 784 s.

As to `CCN(CCCNC(=O)c1nnc(-c2ccc(S(=O)(=O)N3CCCC3)cc2)o1)Cc1ccccc1`, the RP-LC retention time is 661 s.

`Cc1ccc(NC(=O)c2ncn3c2C(=O)N(C2CC2)C(C)(C(=O)NC2CCCC2)C3)c(Cl)c1` (centres undefined) showed an RP-LC retention time of 864 s.

Consider `CS(=O)(=O)N1CCC(C(=O)Nc2ccc(C(F)(F)F)cc2)Oc2ccc(Cl)cc21` (centres undefined), for which the RP-LC retention time is 1060 s.
